Measured values as given in US20090325992A1, “COMPOUND HAVING CYCLIC GROUP BOUND THERETO THROUGH SPIRO BINDING AND USE THEREOF” (ONO PHARMACEUTICAL CO., LTD., priority 2006, published 2009).

Assays:
[1] = molecular target: T1, CXCR4 (human T cell strain CEM cells) (Homo sapiens, UniProt P61073); experiment: Inhibition of binding human SDF-1 to CEM cells (125I-SDF-1); conditions: 4° C., 60 minutes
T1 construct: a human T cell strain in which CXCR4 is known to be expressed; endogenous in cells; host or cells: CEM cells (human T cell strain)
Protocol: Specifically, as a system of screening a compound that inhibits the binding between SDF-1 and CXCR4, for example a system of measuring the binding between iodine-labeled SDF-1 and a human T cell strain in which CXCR4 is known to be expressed is operable.
Study for Inhibition of Binding Human SDF-1 to CEM Cells
To human T cell strain CEM cells in a binding buffer (containing HEPES and BSA), the test compound and ^125I-SDF-1 (PerkinElmer) were added and the mixture was incubated at 4° C. for 60 minutes. The reacted CEM cells were rapidly filtrated with a GF/B membrane filter plate (Packard) to adsorb. The plate was washed with phosphate buffered saline (hereinafter abbreviated to PBS) three times and then dried. Microscint+20 (Packard) was added thereto. An amount of the radioactivity bound to the CEM cells was measured using Top Count (Packard) and inhibition (%) of the test compound was calculated according to the following equation:
Inhibition={(Et−Ea)/(Et−Ec)}×100 [Equation 1]
Et: Amount of radioactivity when the test compound is not added,
Ec: Amount of radioactivity when non-radioactive SDF-1 (Pepro Tech) is added in an amount of 1,000 times as much as ^125I-SDF-1 as a test compound, and
Ea: Amount of radioactivity when the test compound is added.

[2] = Artificial lipid membrane binding using Biacore S51 system; conditions: for Value of binding response (RU): DOPA liposome, 50 μM compound, PBS/5% DMSO pH 7.4, 37° C., corrected value; for Determination (artificial lipid membrane binding): positive = corrected binding response 150 or more
Protocol: Artificial Lipid Membrane Binding Account by using Biacore® S51 System
10 mM of 1,2-dioleoyl-sn-glycero-3-phosphate monosodium salt (hereinafter abbreviated as DOPA) chloroform solution was evaporated to dryness by means of an aspirator, and 0.6 mL of PBS/5% dimethyl sulfoxide (hereinafter abbreviated as DMSO) was added. The chloroform solution was fully suspended by means of a vortex mixer, and the freezing and thawing were repeated for 5 times. Liposome was created by means of a liposome preparation instrument (manufactured by Avestin Inc.) and two syringes, and was diluted to 0.5 mM with PBS/5% DMSO just prior to immobilization.
(2) Measurement Compound Preparation
38 μl of 1×PBS is added to 2 μl of a DMSO solution (10 mM), and further the 360 μl of 1×PBS/5% DMSO was added and the 50 μM of final concentration in PBS/5% DMSO was prepared and measured.
All of the following analysis used Biacore® S51 system and the measurement conditions were set by Biacore S51 Control Soft.
The measurement temperature was set to be 37° C., and PBS/5% DMSO (pH 7.4 or 6.0) was used as a buffer. Series S Sensor Chip L1 was used for a sensor chip. DOPA was immobilized in one of the measuring spots on the sensor surface and the central spot was used as a reference.
Immobilization of liposome was conducted at a flow rate of 10 μL/min for about 3 minutes and then the compound was added at a flow rate of 30 μL/min and the interaction was measured. The measurement conditions are as follows:
Assay buffer: PBS/5% DMSO (pH 7.4) Measurement temperature: 37° C. Sensor chip: Series S Sensor Chip L1 Flow rate: 10 μL/min at the time of the liposome immobilization; 30 μL/min at the time of the measurement of interaction with the compound Regeneration: 20 mM CHAPS (3-[(3-cholamidopropyl)dimethylammonio]-1-propanesulfonate), isopropylalcohol/aqueous 50 mM sodium hydroxide solution=40/60 (volume ratio) mixture solution (60 seconds)
The data processing was conducted by means of method of Abdiche et al., (Analytical biochemistry, 328, 233-243 (2004)) by using Biacore S51 Evaluation Soft.
Regarding the value of binding response (RU) in which the value of reference was subtracted, it was divided by a sample molecular weight after minute error of the DMSO concentration included in the sample solution was corrected. In addition, the value obtained here was divided by an amount of capture at the time of the cycle because the value obtained here was proportional to the amount of capture of the liposome and the value was multiplied by a million to be considered as a corrected value (Corrected value=1,000,000×RU (test compound)/molecular quantity (test compound) RU (liposome)).
The compound wherein a value of the binding response after the correction was 150 or more was determined as positive.

[3] = test system: CHL/IU (cell line derived from a Chinese hamster lung); experiment: Phospholipidosis detecting system using fluorescent labeling phospholipid analog (NBD-PE); assay type: cell-based; conditions: for Rate of increase of phospholipid accumulation (%) (compound dose: 200 μM): CHL/IU cells, compound dose 200 μM, about 48 hours, relative to NBD-PE control; for Determination (phospholipidosis, NBD-PE system): positive = 25% or more of the maximum increase rate of amiodarone
Protocol: Investigation with Phospholipidosis Detecting System using Fluorescent Labeling Phospholipidosis Analog under Severity Condition (1) Phospholipid Accumulation Measurement 100 μL/well as required (1 dose 2 wells) of cell suspension of CHL/IU (cell line derived from a Chinese hamster lung) (7×10^4 cells/mL) prepared by MEM (minimum essential medium) culture medium was added to a 96-well plate (96-well clear-bottom plate), and cultured for about 24 hours. After culture, the supernatant of the 96-well plate was removed, and the 100 μL/well compounds of each concentration dissolved and suspended in an MEM including 25 μmol/L nitrobenzoxadiazole dipalmitoyl phosphatidylethanolamine (NBD-PE) (hereinafter abbreviated as a NPD-PE medium) were added and treated for about 48 hours. The treatment concentrations of each compound were set to be 5, 50, 100 and 200 μM. The positive control substance was set to be amiodarone hydrochloride, and the treatment concentrations were set to be 1.25, 2.5, 5, 10 and 20 μM. In addition, 5-well untreated controls (only MEM) and 5-well NBD-PE controls (made by means of adding a 1/100 amount of DMSO to the NBD-PE culture medium) were set per compound, and cultured in the same manner. After finishing the culture, the cultures were washed twice with phosphate buffered saline (hereinafter abbreviated as PBS) (−) 100 μL/well, and the MEM (100 μL) was added to all of the treatment wells including two empty wells for WST-1 background controls and cultured for about a half hour. The fluorescence intensities of each well were measured by using a microplate reader (manufactured by Molecular Devices Inc., SPECTRA max M2; the excitation wavelength 485 nm/fluorescence wavelength 535 nm). (2) Analysis Using the average values of each dose×2 wells, a phospholipid increase rate (%) to the NBD-PE control was calculated by using the following calculating formula: Rate of increase of phospholipid accumulation (%)=100×{(test compound fluorescence intensity−non-treated control fluorescence intensity)/(NBD-PE control fluorescence intensity−non-treated control fluorescence intensity)} [Equation 2] (3) Cytotoxicity Assay 96-well plate measured in the phospholipid accumulation measurement was measured by means of Plate Reader (manufactured by Molecular Devices Inc., SPECTRA max M2) with the main wavelength of 450 nm and the correct wavelength of 690 nm to calculate a Pre value. An amount of 5 μL/well of Premix WS T-1 was added to each of the 96-hole plates by which Pre measurement was conducted. After culture for 2 to 4 hours, the 96-well plate was measured as well as the Pre measurement to calculate an Aft value. Then, the background control value was subtracted from the each measured value. A value which was calculated by subtracting the Pre value from the Aft value was used, then the cell growth rate (%) was calculated by using the following calculating formula: Cell growth rate (%)=100×[(test substance OD)/(NBD-PE control OD)] [Equation 3] (4) Determination A test dose that indicated value of 25% or more of the maximum phospholipid accumulation increase rate of amiodarone which was the positive control was determined as positive. In addition, the dose whose cell growth rate was equal to or less than 50% in the cytotoxicity assay was not used for determination of existence or nonexistence of a phospholipidosis inductive effect.

[4] = Measurement of maximum plasma level (Cmax) and stationary state distribution volume (Vss); conditions: male, Crl:CD(SD), rat, iv, 1 mg/kg
Protocol: Measurement of Maximum Plasma Level (Cmax) and Stationary State Distribution Volume (Vss)
A compound to be evaluated is weighed, dissolved in WellSolve (trade name; manufactured by Celeste Corporation) which is heated to 60° C. and adjusted to 20 mg/mL; thereafter, the test compound is diluted by 10 times with distilled water for injection, and further diluted by 2 times with saline solution, by which intravenously administered solution is eventually made. A compound to be evaluated is dissolved in WellSolve which is heated to 60° C. and adjusted to 50 mg/mL; thereafter, the compound to be evaluated is diluted with distilled water for injection and adjusted to 1 mg/mL. Five compounds (one set) were mixed in the same amount and adjusted to final concentration of 0.2 mg/mL per one compound, by which orally administered solution is eventually made. […] The administration is conducted under fasting conditions; water is freely ingested. In the case of intravenous administration, a 0.35 mL of blood sample is taken from cervical vein by using Heparinized Syringe at 5 minutes, 15 minutes, 30 minutes, 1 hour, 2 hours, 4 hours, 6 hours, 8 hours, and 24 hours after administration. […] The obtained blood is stored in ice, and after centrifugation at 12,000 rpm for 3 minutes, blood plasma is fractionated. In the case of intravenous administration, the blood plasma sample preserved at a temperature of −80° C. is dissolved; inner standard solution (100 μL) and acetonitrile (2 mL) are added to the blood plasma sample (100 μL) and stirred, and the sample is centrifuged at 2,500 rpm for 10 minutes.
After the supernatant centrifuged is evaporated to dryness by means of a centrifugal concentrator, 67% dimethyl sulfoxide solution (150 μL) is added to the residue and dissolves them again and 20 μL of the solution is analyzed by means of LC/MS/MS.
Measurement device: Waters 2795 (manufactured by Waters Corporation) Analytical column: Unison UK-C18, 3.0 μm particle size, 2.0 mm×30 mm (manufactured by Imtakt Corporation) Analytical column temperature: Room temperature Flow rate: 200 μL/min Moving bed: 5 mM IPC-PFAA-7 solution/acetonitrile (9/1→1/9)
Measurement device: Quatro micro API (manufactured by Micromass Communications Inc.) Scan type: MPM
The monitor ion which was suitable for each sample was selected.
A portion of the compound to be intravenously administered was subjected to the following treatment. The blood plasma sample preserved at a temperature of −80° C. is dissolved; inner standard solution (50 μL) and acetonitrile (1 mL) are added to the blood plasma sample (50 μL) and stirred, and the sample is centrifuged at 3,000 rpm for 10 minutes. After the supernatant is evaporated to dryness by means of a centrifugal concentrator, the residue was redissolved in water/acetonitrile (1/1) and the solution is analyzed by means of LC/MS/MS under the following conditions.
Measurement device: 1200 series system (manufactured by Agilent Technologies) Analytical column: Asahipak OOD-50 2D, 2×150 mm (manufactured by Showa Denko K.K.) Analytical column temperature: Room temperature Moving bed: 5 mM IPC—PFAA-7 solution/acetonitrile (gradient) Flow rate: 200 μL/min

T1 sequence (P61073 whole entry): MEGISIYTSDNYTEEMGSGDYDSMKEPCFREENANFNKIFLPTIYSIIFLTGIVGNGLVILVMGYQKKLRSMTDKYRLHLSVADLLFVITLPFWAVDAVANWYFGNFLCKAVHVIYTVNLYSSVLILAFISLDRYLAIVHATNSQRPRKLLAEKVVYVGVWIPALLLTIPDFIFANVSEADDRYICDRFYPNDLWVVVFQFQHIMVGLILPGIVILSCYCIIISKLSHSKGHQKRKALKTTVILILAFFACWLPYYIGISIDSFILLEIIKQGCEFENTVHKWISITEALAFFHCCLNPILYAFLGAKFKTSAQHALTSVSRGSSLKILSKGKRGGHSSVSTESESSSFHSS

Compound	IC50 [1]	Value of binding response (RU) [2]	Determination (artificial lipid membrane binding) [2]	Vd [4]	Rate of increase of phospholipid accumulation (%) (compound dose: 200 μM) [3]	Determination (phospholipidosis, NBD-PE system) [3]
COC(=O)Cc1ccc(CN(Cc2ncc[nH]2)Cc2nccn2CCCN2CCC3(CCN(CC(C)C)CC3)C2)cc1 [Example 21(4), Methyl (4-{[(1H-imidazol-2-ylmethyl)({1-[3-(8-isobutyl-2,8-diazaspiro[4.5]deca-2-yl)propyl]-1H-imidazol-2-yl}methyl)amino]methyl}phenyl)acetate]	7.4 nM					
CC(C)CN1CCC2(CC1)CCN(CCCn1ccnc1CN(Cc1ccc(CC(=O)O)cc1)Cc1ncc[nH]1)C2 [Example 22(4), (4-{[(1H-imidazol-2-ylmethyl)({1-[3-(8-isobutyl-2,8-diazaspiro[4.5]deca-2-yl)propyl]-1H-imidazol-2-yl}methyl)amino]methyl}phenyl)acetic acid]	20.7 nM	23.4 RU	Negative	1.1 L/kg	16%	Negative
CCC(CC)N1CCC2(CCN(CCCn3ccnc3CN(CCCC(=O)O)Cc3ncc[nH]3)C2)CC1 [Example 25(1), 4-{[(1-{3-[8-(1-ethylpropyl)-2,8-diazaspiro[4.5]deca-2-yl]propyl}-1H-imidazol-2-yl)methyl](1H-imidazol-2-ylmethyl)amino}butanoic acid]	6.6 nM	28.3 RU	Negative	0.36 L/kg	16%	Negative
O=C(O)COc1ccc(CN(Cc2ncc[nH]2)Cc2nccn2CCCN2CCC3(CCN(C4CCCCC4)CC3)C2)cc1 [Example 41(6), (4-{[({1-[3-(8-cyclohexyl-2,8-diazaspiro[4.5]deca-2-yl)propyl]-1H-imidazol-2-yl}methyl)(1H-imidazol-2-ylmethyl)amino]methyl}phenoxy)acetic acid]	4.4 nM	72.9 RU	Negative		16%	Negative
O=C(O)COc1cccc(CN(Cc2ncc[nH]2)Cc2nccn2CCCN2CCC3(CCN(C4CCCCC4)CC3)C2)c1 [Example 41(7), (3-{[({1-[3-(8-cyclohexyl-2,8-diazaspiro[4.5]deca-2-yl)propyl]-1H-imidazol-2-yl}methyl)(1H-imidazol-2-ylmethyl)amino]methyl}phenoxy)acetic acid]	4.5 nM	63.6 RU	Negative		21%	Negative
CCOC(=O)CCc1ccc(CN(Cc2ncc[nH]2)Cc2nccn2CCCN2CCC3(CCN(C(CC)CC)CC3)C2)s1 [Example 42(4), Ethyl 3-[5-({[(1-{3-[8-(1-ethylpropyl)-2,8-diazaspiro[4.5]deca-2-yl]propyl}-1H-imidazol-2-yl)methyl](1H-imidazol-2-ylmethyl)amino}methyl)-2-thienyl]propanoate]	4.4 nM					
CCC(CC)N1CCC2(CCN(CCCn3ccnc3CN(Cc3cccc(OCC(=O)O)c3)Cc3ncc[nH]3)C2)CC1 [Example 43(1), [3-({[(1-{3-[8-(1-ethylpropyl)-2,8-diazaspiro[4.5]deca-2-yl]propyl}-1H-imidazol-2-yl)methyl](1H-imidazol-2-ylmethyl)amino}methyl)phenoxy]acetic acid]	6.3 nM	41.2 RU	Negative	0.42 L/kg	14%	Negative
CCC(CC)N1CCC2(CCN(CCCn3ccnc3CN(Cc3cccc(SCC(=O)O)c3)Cc3ncc[nH]3)C2)CC1 [Example 43(2), {[3-({[(1-{3-[8-(1-ethylpropyl)-2,8-diazaspiro[4.5]deca-2-yl]propyl}-1H-imidazol-2-yl)methyl](1H-imidazol-2-ylmethyl)amino}methyl)phenyl]thio}acetic acid]	9.3 nM					
CCC(CC)N1CCC2(CCN(CCCn3ccnc3CN(Cc3ccc4cc(OCC(=O)O)ccc4c3)Cc3ncc[nH]3)C2)CC1 [Example 43(3), {[6-({[(1-{3-[8-(1-ethylpropyl)-2,8-diazaspiro[4.5]deca-2-yl]propyl}-1H-imidazol-2-yl)methyl](1H-imidazol-2-ylmethyl)amino}methyl)-2-naphthyl]oxy}acetic acid]	13.6 nM					

Now from value to molecule, other results behind:

IC50 [1]	Value of binding response (RU) [2]	Determination (artificial lipid membrane binding) [2]	Vd [4]	Compound	Rate of increase of phospholipid accumulation (%) (compound dose: 200 μM) [3]	Determination (phospholipidosis, NBD-PE system) [3]
≤ 3 nM				CCOC(=O)COc1ccc(CN(Cc2ncc[nH]2)Cc2nccn2CCCN2CCC3(CCN(C4CCCCC4)CC3)C2)cc1 [Example 40(12), Ethyl (4-{[({1-[3-(8-cyclohexyl-2,8-diazaspiro[4.5]deca-2-yl)propyl]-1H-imidazol-2-yl}methyl)(1H-imidazol-2-ylmethyl)amino]methyl}phenoxy)acetate]		
≤ 3 nM				CCOC(=O)COc1cccc(CN(Cc2ncc[nH]2)Cc2nccn2CCCN2CCC3(CCN(C4CCCCC4)CC3)C2)c1 [Example 40(13), Ethyl (3-{[({1-[3-(8-cyclohexyl-2,8-diazaspiro[4.5]deca-2-yl)propyl]-1H-imidazol-2-yl}methyl)(1H-imidazol-2-ylmethyl)amino]methyl}phenoxy)acetate]		
≤ 3 nM				CCOC(=O)COc1cccc(CN(Cc2ncc[nH]2)Cc2nccn2CCCN2CCC3(CCN(C(CC)CC)CC3)C2)c1 [Example 42(1), Ethyl [3-({[(1-{3-[8-(1-ethylpropyl)-2,8-diazaspiro[4.5]deca-2-yl]propyl}-1H-imidazol-2-yl)methyl] (1H-imidazol-2-ylmethyl)amino}methyl)phenoxy]acetate]		
3 nM				CCOC(=O)COc1ccc(CN(Cc2ncc[nH]2)Cc2nccn2CCCN2CCC3(CCN(C(CC)CC)CC3)C2)cc1 [Example 42, Ethyl [4-({[(1-{3-[8-(1-ethylpropyl)-2,8-diazaspiro[4.5]deca-2-yl]propyl}-1H-imidazol-2-yl)methyl] (1H-imidazol-2-ylmethyl)amino}methyl)phenoxy]acetate]		
4.3 nM				CCOC(=O)CCCn1ccnc1CN(C)Cc1nccn1CCCN1CCC2(CCN(CC(C)C)CC2)C1 [Example 47(4), Ethyl 4-(2-{[({1-[3-(8-isobutyl-2,8-diazaspiro[4.5]deca-2-yl)propyl]-1H-imidazol-2-yl}methyl)(methyl)amino]methyl}-1H-imidazol-1-yl)butanoate]		
